Reference: the NIST ThermoML archive (doi:10.1021/je700260f)

Settings: 323.15 K, Liquid, Vibrating tube method

FC(C(F)(F)F)C(F)(F)F [1,1,1,2,3,3,3-heptafluoropropane]
Settings	mass density [kg/m3]
9744 kPa	1360.2
9763 kPa	1360.3
9782 kPa	1360.5
9800 kPa	1360.6
9817 kPa	1360.8
9836 kPa	1360.8
9857 kPa	1361.2
9876 kPa	1361.3
9894 kPa	1361.4
10348 kPa	1364.7
10377 kPa	1364.9
10394 kPa	1364.9
10416 kPa	1365.1
10433 kPa	1365.2
10451 kPa	1365.3
10468 kPa	1365.4
10492 kPa	1365.7
10512 kPa	1365.7
10532 kPa	1365.9
10553 kPa	1366
10577 kPa	1366.2
10595 kPa	1366.3
10749 kPa	1367.4
10766 kPa	1367.5
10786 kPa	1367.7
10804 kPa	1367.8
10828 kPa	1367.9
10845 kPa	1368.1
10864 kPa	1368.3
10894 kPa	1368.4
11387 kPa	1371.8
11407 kPa	1371.9
11425 kPa	1372
11446 kPa	1372.2
11463 kPa	1372.3
11483 kPa	1372.5
11501 kPa	1372.7
11519 kPa	1372.7
11540 kPa	1372.9
12697 kPa	1380.5
12717 kPa	1380.6
12774 kPa	1380.8
12791 kPa	1381
12809 kPa	1381.2
12835 kPa	1381.4
12849 kPa	1381.5
12876 kPa	1381.6
12893 kPa	1381.6
12913 kPa	1381.8
12933 kPa	1382
12950 kPa	1382.2
12971 kPa	1382.2
12984 kPa	1382.4
13009 kPa	1382.4
13183 kPa	1383.5
13201 kPa	1383.6
13222 kPa	1383.8
13245 kPa	1383.9
13732 kPa	1386.8
13757 kPa	1387.1
13777 kPa	1387.2
13803 kPa	1387.2
13826 kPa	1387.4
13851 kPa	1387.5
13891 kPa	1387.8
13911 kPa	1387.9
13940 kPa	1388.1
13964 kPa	1388.4
13981 kPa	1388.6
14001 kPa	1388.5
14024 kPa	1388.6
14045 kPa	1388.8
14066 kPa	1388.9
14089 kPa	1389.2
14106 kPa	1389.2
14126 kPa	1389.3
14223 kPa	1390
14245 kPa	1390
14268 kPa	1390.2
14290 kPa	1390.1
14307 kPa	1390.4
14331 kPa	1390.5
14346 kPa	1390.7
14525 kPa	1391.7
14547 kPa	1392
14564 kPa	1392
14584 kPa	1392
14606 kPa	1392.1
14624 kPa	1392.3
14649 kPa	1392.4
14665 kPa	1392.5
14689 kPa	1392.6
14710 kPa	1392.9
15240 kPa	1396
15711 kPa	1398.5
15733 kPa	1398.8
15763 kPa	1398.9
15783 kPa	1399.1
15811 kPa	1399.3
15834 kPa	1399.3
15857 kPa	1399.5
15884 kPa	1399.6
15907 kPa	1399.8
15931 kPa	1400
15952 kPa	1399.9
15979 kPa	1400.1
15995 kPa	1400.2
16018 kPa	1400.3
16047 kPa	1400.5
16072 kPa	1400.6
16209 kPa	1401.3
16238 kPa	1401.5
16257 kPa	1401.7
16276 kPa	1401.7
16300 kPa	1401.9
16318 kPa	1402
16339 kPa	1402.1
16364 kPa	1402.3
16385 kPa	1402.4
16407 kPa	1402.6
16429 kPa	1402.6
16451 kPa	1402.8
16474 kPa	1402.8
16502 kPa	1403
16520 kPa	1403.2
16544 kPa	1403.3
16566 kPa	1403.2
16584 kPa	1403.6
16603 kPa	1403.7
16629 kPa	1403.6
16649 kPa	1403.9
16677 kPa	1404.1
16763 kPa	1404.5
16808 kPa	1404.8
16827 kPa	1404.9
16854 kPa	1405.1
16872 kPa	1405
16898 kPa	1405.2
16920 kPa	1405.3
16947 kPa	1405.5
16978 kPa	1405.6
16998 kPa	1405.8
17027 kPa	1406
17050 kPa	1406
17073 kPa	1406.2
17097 kPa	1406.2
17120 kPa	1406.4
17141 kPa	1406.4
17170 kPa	1406.7
17197 kPa	1406.8
17220 kPa	1406.9
17330 kPa	1407.5
17378 kPa	1407.6
17898 kPa	1410.5
17952 kPa	1410.9
17976 kPa	1411.1
17998 kPa	1411.2
18024 kPa	1411.4
18049 kPa	1411.4
18081 kPa	1411.6
18105 kPa	1411.8
18129 kPa	1411.7
18160 kPa	1412
18184 kPa	1412.1
18240 kPa	1412.4
18317 kPa	1412.9
18547 kPa	1414
18567 kPa	1414.1
18596 kPa	1414.3
18614 kPa	1414.3
18862 kPa	1415.5
18885 kPa	1415.8
18905 kPa	1415.8
18929 kPa	1416
18952 kPa	1416.1
18981 kPa	1416.2
19007 kPa	1416.4
19162 kPa	1417
19197 kPa	1417.4
20153 kPa	1422
20175 kPa	1422.2
20203 kPa	1422.2
20225 kPa	1422.4
20251 kPa	1422.6
20283 kPa	1422.7
20313 kPa	1422.8
20340 kPa	1422.8
20370 kPa	1423.2
20404 kPa	1423.3
20429 kPa	1423.4
20481 kPa	1423.6
21768 kPa	1429.8
21806 kPa	1430
21829 kPa	1430.1
21855 kPa	1430
21886 kPa	1430.3
21913 kPa	1430.5
21936 kPa	1430.6
21971 kPa	1430.7
22991 kPa	1435.4
23635 kPa	1438.4
23664 kPa	1438.4
23690 kPa	1438.6
23714 kPa	1438.6
23750 kPa	1438.7
